Measurements from patent publication US7138231B2 (priority 2000, dated 2006).
“Also recorded” adds a separate entry of the source. Like-named read-outs stand apart in the source and are kept apart here.

Columns and labels:
[1] = tested on: HIV-1 variants with protease substitutions; settings: cited from earlier work
[2] = tested on: HIV-1 patient-derived protease and reverse transcriptase segments (N88S in PR) in resistance test vectors; experiment: Phenotypic drug susceptibility test with resistance test vectors from patient samples; type: cell-based; settings: for Fold Change vs. reference: N88S
[3] = tested on: HIV-1 patient viruses with protease L90M; experiment: Phenotypic susceptibility profiles of 333 patient virus samples with L90M (not 30 or 50); type: cell-based
[4] = tested on: HIV-1 protease site-directed mutants (N88S, L63P, V77I, M46L) in resistance test vector; experiment: Phenotypic susceptibility assay of resistance test vectors with site-directed mutations in PR
Source text: The resistance test vectors containing a functional luciferase gene cassette were constructed and host cells were transfected with the resistance test vector DNA. […] The resistance test vector viral particles produced by transfecting the resistance test vector DNA into host cells, either in the presence or absence of protease inhibitors, were used to infect target host cells grown either in the absence of NRTI or NNRTI or in the presence of increasing concentrations of the drug. Luciferase activity in infected target host cells in the presence of drug was compared to the luciferase activity in infected target host cells in the absence of drug. […] The IC50 values were determined by plotting percent drug inhibition vs. log10 drug concentration.
Host cells were seeded in 10-cm-diameter dishes and were transfected one day after plating with resistance test vector plasmid DNA and the envelope expression vector. Transfections were performed using a calcium-phosphate co-precipitation procedure. The cell culture media containing the DNA precipitate was replaced with fresh medium, from one to 24 hours, after transfection. Cell culture media containing resistance test vector viral particles was harvested one to four days after transfection and was passed through a 0.45-mm filter before being stored at −80° C. HIV capsid protein (p24) levels in the harvested cell culture media were determined by an EIA method as described by the manufacturer (SIAC; Frederick, Md.). Before infection, target cells (293 and 293/T) were plated in cell culture media. Control infections were performed using cell culture media from mock transfections (no DNA) or transfections containing the resistance test vector plasmid DNA without the envelope expression plasmid. One to three or more days after infection the media was removed and cell lysis buffer (Promega) was added to each well. Cell lysates were assayed for luciferase activity. The inhibitory effect of the drug was determined using the following equation: % luciferase inhibition=[1−(RLUluc[drug]RLUluc)]×100 where RLUluc [drug] is the relative light unit of luciferase activity in infected cells in the presence of drug and RLUluc is the Relative Light Unit of luciferase activity in infected cells in the absence of drug. IC50 values were obtained from the sigmoidal curves that were generated from the data by plotting the percent inhibition of luciferase activity vs. the log10 drug concentration.
Mutations are introduced into the resistance test vector through any of the widely known methods for site-directed mutagenesis. […] A resistance test vector containing the specific mutation or group of mutations are then tested using the phenotypic susceptibility assay described above and the susceptibility profile is compared to that of a genetically defined wild-type (drug susceptible) resistance test vector which lacks the specific mutations.
Resistance test vectors were constructed containing the N88S mutation alone and in combination with other substitutions in PR (L63P, V77I and M46L) known to modulate the HIV susceptibility to PRIs. Mutations were introduced into the resistance test vector using the mega-primer PCR method for site-directed mutagenesis.

HIV-1 = settings: cited from earlier work
[5] = target: HIV-1 protease mutants (I50V, M46I/I47V/I50V, L10F, M46I, I47V) (Human immunodeficiency virus type 1 group M subtype B, UniProt P04585, I535V/I538V/M534I); settings: triple mutant M46I/I47V/I50V; cited from earlier work
[6] = target: HIV-1 protease mutants (I50V, M46I/I47V/I50V, L10F, M46I, I47V) (Human immunodeficiency virus type 1 group M subtype B, UniProt P04585, I538V); settings: I50V single-mutant protease; cited from earlier work
[7] = tested on: HIV-1 protease mutants (I50V, M46I/I47V/I50V, L10F, M46I, I47V); settings: single mutants L10F, M46I, and I47V; cited from earlier work
HIV-2 = settings: cited from earlier work
[8] = tested on: HIV-1 patient viruses with protease L90M; experiment: Phenotypic susceptibility profiles of 58 patient virus samples with L90M, no other primary mutations; type: cell-based; settings: {}

For `CC(C)CN(C[C@@H](O)[C@H](Cc1ccccc1)NC(=O)O[C@H]1CCOC1)S(=O)(=O)c1ccc(N)cc1` [amprenavir], the decrease in susceptibility ([1]; I50V as a single mutation) is given as “two- to threefold”, the “resistance of selected variants” value ([1]; in vitro passage, L10F, M46I, I47V, I50V) is given as 100 fold and the “change in susceptibility” value ([1]; other substitutions as single mutations in HXB2) is given as “did not result in reduced susceptibility”. The “fold less susceptible than wild-type virus” value ([1]; triple mutant clone M46I, I47V, I50V) was 20 fold, the “Fold Change vs. reference” value ([2]; patient sample 360, prior PRI IDV, PR I13V, K20M, M36V, N37A, M46I, I62V, L63P, I93L) was 0.15 fold and the “Fold Change vs. reference” value ([2]; patient sample 627, prior PRI IDV, PR I13I/V, E35D, M46L, L63P, I64V, I73V) was 0.09 fold. The “Fold Change vs. reference” value ([2]; patient sample 0732, prior PRI NFV, PR K14R, I15V, K20T, E35D, M36I, R41K, I62V, L63Q) was 0.08 fold, the “Fold Change vs. reference” value ([2]; patient sample 0910, prior PRI NFV, PR M46I, L63P, V77I, I93I/L) was 0.16 fold and the “Fold Change vs. reference” value ([2]; patient sample 1208, prior PRI NFV, PR I62V, L63P, V77I) was 0.10 fold. The “Fold Change vs. reference” value ([2]; patient sample 3542, prior PRI IDV, PR I13V, K14R, N37D, M46I, L63P, I93L) was 0.16 fold, the “Fold Change vs. reference” value ([2]; patient sample 3654, PR I13V, R41K, M46I, L63P, V77I, I93L) was 0.20 fold and the “change in susceptibility” value ([2]; patient sample RTV-360) was “increase”. The “change in susceptibility” value ([2]; patient sample RTV-627) was “increase”, the “change in susceptibility” value ([2]; patient sample RTV-0732) was “increase; also recorded: increased susceptibility” and the “change in susceptibility” value ([2]; patient sample RTV-0910) was “increase”. For the same compound, the “change in susceptibility” value ([2]; patient sample RTV-1208) was “increase”, the “change in susceptibility” value ([2]; patient sample RTV-3542) was “increase” and the “change in susceptibility” value ([2]; patient sample RTV-3654) was “increase”. The “wt % > 2.5” value ([3]; Amprenavir FC>2.5, L90M, position 10 wild type) was 30.8%, the “wt % > 2.5” value ([3]; Amprenavir FC>2.5, L90M, position 15 wild type) was 63.6% and the “wt % > 2.5” value ([3]; Amprenavir FC>2.5, L90M, position 33 wild type) was 57.4%. For the same compound, the “wt % > 2.5” value ([3]; Amprenavir FC>2.5, L90M, position 36 wild type) was 55.3%, the “wt % > 2.5” value ([3]; Amprenavir FC>2.5, L90M, position 46 wild type) was 46.2% and the “wt % > 2.5” value ([3]; Amprenavir FC>2.5, L90M, position 53 wild type) was 57.6%. The “wt % > 2.5” value ([3]; Amprenavir FC>2.5, L90M, position 54 wild type) was 47.5%, the “wt % > 2.5” value ([3]; Amprenavir FC>2.5, L90M, position 58 wild type) was 58.7% and the “wt % > 2.5” value ([3]; Amprenavir FC>2.5, L90M, position 62 wild type) was 55.3%. For the same compound, the “wt % > 2.5” value ([3]; Amprenavir FC>2.5, L90M, position 74 wild type) was 62.5%, the “wt % > 2.5” value ([3]; Amprenavir FC>2.5, L90M, position 82 wild type) was 53.5% and the “wt % > 2.5” value ([3]; Amprenavir FC>2.5, L90M, position 84 wild type) was 48.5%. For the same compound, the “wt % > 2.5” value ([3]; Amprenavir FC>2.5, L90M, position 89 wild type) was 59.3%, the “wt % > 2.5” value ([3]; Amprenavir FC>2.5, L90M, position 92 wild type) was 58.6% and the “wt % > 2.5” value ([3]; Amprenavir FC>2.5, L90M, position 95 wild type) was 58.7%. For the same compound, the “mt % > 2.5” value ([3]; Amprenavir FC>2.5, listed as 90: all samples with L90M) was 60.4%, the “wt % > 10” value ([3]; Amprenavir FC>10, L90M, position 10 wild type) was 2.6% and the “wt % > 10” value ([3]; Amprenavir FC>10, L90M, position 13 wild type) was 10.9%. The “wt % > 10” value ([3]; Amprenavir FC>10, L90M, position 32 wild type) was 11.7%, the “wt % > 10” value ([3]; Amprenavir FC>10, L90M, position 33 wild type) was 8.4% and the “wt % > 10” value ([3]; Amprenavir FC>10, L90M, position 46 wild type) was 8.3%. For the same compound, the “wt % > 10” value ([3]; Amprenavir FC>10, L90M, position 47 wild type) was 11.9%, the “wt % > 10” value ([3]; Amprenavir FC>10, L90M, position 53 wild type) was 11.5% and the “wt % > 10” value ([3]; Amprenavir FC>10, L90M, position 54 wild type) was 5.9%. The “wt % > 10” value ([3]; Amprenavir FC>10, L90M, position 55 wild type) was 11.6%, the “wt % > 10” value ([3]; Amprenavir FC>10, L90M, position 66 wild type) was 11.9% and the “wt % > 10” value ([3]; Amprenavir FC>10, L90M, position 69 wild type) was 14.2%. For the same compound, the “wt % > 10” value ([3]; Amprenavir FC>10, L90M, position 84 wild type) was 8.7%, the “% > 10” value ([3]; Amprenavir FC>10, listed as 90: all samples with L90M) was 12.9% and the “Percent of viruses with indicated primary mutation(s) with reduced susceptibility (fold change in IC50 > 2.5)” value ([3]; L90M) was 60.4%. For the same compound, the “Percent of viruses with indicated primary mutation(s) with reduced susceptibility (fold change in IC50 > 10)” value ([3]; L90M) was 12.9%, the “change in susceptibility compared to wild type control RTV” value (“change … to wild type control RTV” below) ([4]; L63P-N88S-RTV) was “increase in the susceptibility” and the “change … to wild type control RTV” value ([4]; L63P-V77I-N88S-RTV) was “increase in the susceptibility; also recorded: increased susceptibility”. For the same compound, the “change … to wild type control RTV” value ([4]; M46L-L63P-N88S-RTV) was “increase in the susceptibility”, the “change … to wild type control RTV” value ([4]; M46L-L63P-V77I-N88S-RTV) was “increase in the susceptibility” and the “change … to wild type control RTV” value ([4]; N88S-RTV) was “more susceptible”. For the same compound, the “Fold Change vs. reference” value ([4]; site-directed mutation N88S) was 0.04 fold, the “Fold Change vs. reference” value ([4]; site-directed mutations L63P) was 1.06 fold and the “Fold Change vs. reference” value ([4]; site-directed mutations L63P, N88S) was 0.11 fold. For the same compound, the “Fold Change vs. reference” value ([4]; site-directed mutations L63P, V77I) was 0.91 fold, the “Fold Change vs. reference” value ([4]; site-directed mutations L63P, V77I, N88S) was 0.08 fold and the “Fold Change vs. reference” value ([4]; site-directed mutations M46L, L63P, N88S) was 0.12 fold. The “Fold Change vs. reference” value ([4]; site-directed mutations M46L, L63P, V77I, N88S) was 0.14 fold, the IC50 (HIV-1; read-out: IC50) was 80 nM and the IC50 (HIV-1; read-out: mean IC50) was 12 nM. For the same compound, the “fold-reduced Kl compared to wild-type enzyme” value [5] was 270 fold, the “fold reduction in the inhibition constant (Kl) compared to wild-type enzyme” value [6] was 80 fold and the “affinity” value [7] was “did not display reduced affinity”. The IC50 (HIV-2) was 340 nM and the “Percent of viruses with indicated primary mutation(s) which are drug sensitive (fold change in IC50 < 2.5)” value [8] was 65.5%.
